Assay results reported in patent US20240116910A1, “Heterocycles as WIP1 Inhibitors” (PMV Pharmaceuticals, Inc., priority 2022, published 2024).

target: recombinant His-tag Wip1(2-420) protein (amino acids #2-420) (Homo sapiens (Human), UniProt O15297); assay: Wip1(2-420) phosphatase enzyme FDP assay; assay type: biochemical; conditions: fluorescein diphosphate (FDP) substrate, RT 2 hours, fluorescence Ex485/Em535; read-out: WIP1 (Truncated 2-420) FDP Assay: IC50
Sequence (O15297 2-420): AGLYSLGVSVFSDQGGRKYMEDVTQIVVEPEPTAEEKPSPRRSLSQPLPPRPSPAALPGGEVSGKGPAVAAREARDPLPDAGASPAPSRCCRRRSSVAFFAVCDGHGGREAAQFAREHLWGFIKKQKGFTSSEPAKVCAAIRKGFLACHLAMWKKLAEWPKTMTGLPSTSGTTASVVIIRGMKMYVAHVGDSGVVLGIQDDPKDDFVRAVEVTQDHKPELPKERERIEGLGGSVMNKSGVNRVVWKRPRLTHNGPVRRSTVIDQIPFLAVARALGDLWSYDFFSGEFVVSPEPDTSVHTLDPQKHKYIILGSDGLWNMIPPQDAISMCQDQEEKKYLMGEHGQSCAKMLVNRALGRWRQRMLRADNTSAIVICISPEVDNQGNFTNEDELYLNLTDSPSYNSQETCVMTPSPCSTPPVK

Row | IC50 [nM] | SMILES
1 | 102 | C[C@@H](c1ccc(C(=O)N[C@@H](CC2CCCC2)C(=O)NC2CC2)s1)N(C)c1cncc(Cl)c1 [Compound 89, (2S)-2-({5-[(1S)-1-[(5-chloropyridin-3-yl)(methyl)amino]ethyl]thiophen-2-yl}formamido)-3-cyclopentyl-N-cyclopropylpropanamide]
2 | 8 | Cc1ncc(Cl)cc1N[C@@H](C)c1ccc(C(=O)N[C@@H](CC2CCCC2)C(=O)NC2CC3(COC3)C2)s1 [Compound 237, (2S)-2-({5-[(1S)-1-[(5-chloro-2-methylpyridin-3-yl)amino]ethyl]thiophen-2-yl}formamido)-3-cyclopentyl-N-{2-oxaspiro[3.3]heptan-6-yl}propanamide]
3 | 217 | Cc1ncc(Cl)cc1N[C@H](Cc1cnn(C)c1)c1ccc(C(=O)N[C@@H](CC2CCCC2)C(=O)NC2CC2)s1 [Compound 170, (2S)-2-({5-[(1R)-1-[(5-chloro-2-methylpyridin-3-yl)amino]-2-(1-methyl-1H-pyrazol-4-yl)ethyl]thiophen-2-yl}formamido)-3-cyclopentyl-N-cyclopropylpropanamide]
4 | 4 | C[C@H](Nc1cc(Cl)cnc1C(N)=O)c1ccc(C(=O)N[C@@H](CC2CCCC2)C(=O)NC23CC(C2)C3)s1 [Compound 133, 3-{[(1S)-1-(5-{[(1S)-1-({bicyclo[1.1.1]pentan-1-yl}carbamoyl)-2-cyclopentylethyl]carbamoyl}thiophen-2-yl)ethyl]amino}-5-chloropyridine-2-carboxamide]
5 | 29 | C[C@H](Nc1cc(Cl)cnc1C(=O)N(C)C)c1ccc(C(=O)N[C@@H](CC2CCCC2)C(=O)NC2CC2)s1 [Compound 205, 5-chloro-3-{[(1S)-1-(5-{[(1S)-2-cyclopentyl-1-(cyclopropylcarbamoyl)ethyl]carbamoyl}thiophen-2-yl)ethyl]amino}-N,N-dimethylpyridine-2-carboxamide]
6 | 5 | Cc1ncc(Cl)cc1N[C@@H](C)c1ccc(C(=O)N[C@@H](CC2CCCC2)C(=O)NC2CCC2)s1 [Compound 87, (2S)-2-({5-[(1S)-1-[(5-chloro-2-methylpyridin-3-yl)amino]ethyl]thiophen-2-yl}formamido)-N-cyclobutyl-3-cyclopentylpropanamide]
7 | 10 | Cc1ncc(Cl)cc1N[C@@H](C)c1ccc(C(=O)N[C@@H](CC2CCCC2)C(=O)N[C@H]2C[C@H](C#N)C2)s1 [Compound 211, (2S)-2-({5-[(1S)-1-[(5-chloro-2-methylpyridin-3-yl)amino]ethyl]thiophen-2-yl}formamido)-3-cyclopentyl-N-[(1r,3r)-3-cyanocyclobutyl]propanamide]
8 | 18 | C[C@H](Nc1cc(Cl)cnc1CO)c1ccc(C(=O)N[C@@H](CC2CCCC2)C(=O)NC2CC2)s1 [Compound 105, (2S)-2-({5-[(1S)-1-{[5-chloro-2-(hydroxymethyl)129yridine-3-yl]amino}ethyl]thiophen-2-yl}formamido)-3-cyclopentyl-N-cyclopropylpropanamide]
9 | 210 | C[C@H](Nc1cc(Cl)nc2ccnn12)c1ccc(C(=O)N[C@@H](CC2CCCC2)C(=O)NC2CC2)s1 [Compound 260, (2S)-2-({5-[(1S)-1-({5-chloropyrazolo[1,5-a]pyrimidin-7-yl}amino)ethyl]thiophen-2-yl}formamido)-3-cyclopentyl-N-cyclopropylpropanamide]
10 | 13 | C[C@@H](Nc1cc(Cl)nc2ccnn12)c1ccc(C(=O)N[C@@H](CC2CCCC2)C(=O)NC2CC2)s1 [Compound 259, (2S)-2-({5-[(1R)-1-({5-chloropyrazolo[1,5-a]pyrimidin-7-yl}amino)ethyl]thiophen-2-yl}formamido)-3-cyclopentyl-N-cyclopropylpropanamide]
11 | 5 | Cc1ncc(Cl)cc1N[C@@H](C)c1ccc(C(=O)N[C@@H](CC2CCCC2)C(=O)Nc2cnn(CCF)c2)s1 [Compound 141, (2S)-2-({5-[(1S)-1-[(5-chloro-2-methylpyridin-3-yl)amino]ethyl]thiophen-2-yl}formamido)-3-cyclopentyl-N-[1-(2-fluoroethyl)-1H-pyrazol-4-yl]propanamide]
12 | 132 | Cc1ncc(Cl)cc1NC(c1ccc(C(=O)N[C@@H](CC2CCCC2)C(=O)NC2CC2)s1)C(F)(F)F (stereo partly drawn) [Compound 224, (2S)-2-[(5-{1-[(5-chloro-2-methylpyridin-3-yl)amino]-2,2,2-trifluoroethyl}thiophen-2-yl)formamido]-3-cyclopentyl-N-cyclopropylpropanamide]
13 | 6 | Cc1ncc(Cl)cc1N[C@@H](C)c1ccc(C(=O)N[C@@H](CC2CCCC2)C(=O)Nc2cnn(C(C)(C)C)c2)s1 [Compound 149, (2S)-N-(1-tert-butyl-1H-pyrazol-4-yl)-2-({5-[(1S)-1-[(5-chloro-2-methylpyridin-3-yl)amino]ethyl]thiophen-2-yl}formamido)-3-cyclopentylpropanamide]
14 | 484 | COc1ncc(Cl)cc1N[C@H](C)c1ccc(C(=O)N[C@@H](CC2CCCC2)C(=O)NC23CC(C#N)(C2)C3)s1 [Compound 83, (2S)-2-({5-[(1R)-1-[(5-chloro-2-methoxypyridin-3-yl)amino]ethyl]thiophen-2-yl}formamido)-N-{3-cyanobicyclo[1.1.1]pentan-1-yl}-3-cyclopentylpropanamide]
15 | 378 | Cc1ncc(Cl)cc1N[C@H](Cn1cccn1)c1ccc(C(=O)N[C@@H](CC2CCCC2)C(=O)NC2CC2)s1 [Compound 165, (2S)-2-({5-[(1R)-1-[(5-chloro-2-methylpyridin-3-yl)amino]-2-(1H-pyrazol-1-yl)ethyl]thiophen-2-yl}formamido)-3-cyclopentyl-N-cyclopropylpropanamide]
16 | 6 | Cc1ncc(Cl)cc1N[C@@H](C)c1ccc(C(=O)N[C@@H](CC2CCC3CC32)C(=O)NC23CC(C2)C3)s1 (stereo partly drawn) [Compound 110, (2S)-N-{bicyclo[1.1.1]pentan-1-yl}-3-{bicyclo[3.1.0]hexan-2-yl}-2-({5-[(1S)-1-[(5-chloro-2-methylpyridin-3-yl)amino]ethyl]thiophen-2-yl}formamido)propanamide]
17 | 2500 | Cc1ncc(Cl)cc1N[C@@H](C)c1ccc(C(=O)N[C@H](CC2CCCC2)C(=O)Nc2ccnc(Cl)c2)s1 [Compound 142, (2R)-2-({5-[(1S)-1-[(5-chloro-2-methylpyridin-3-yl)amino]ethyl]thiophen-2-yl}formamido)-N-(2-chloropyridin-4-yl)-3-cyclopentylpropanamide]
18 | 678 | O=C(N[C@@H](CC1CCCC1)C(=O)NC1CC1)c1ccc([C@H]2CCc3c(Cl)cccc3N2)s1 [Compound 251, (2S)-2-({5-[(2R)-5-chloro-1,2,3,4-tetrahydroquinolin-2-yl]thiophen-2-yl}formamido)-3-cyclopentyl-N-cyclopropylpropanamide]
19 | 61 | Cc1ncc(Cl)cc1N[C@H](c1ccc(C(=O)N[C@@H](CC2CCCC2)C(=O)NC2CC2)s1)C(F)(F)F [Compound 185, (2S)-2-({5-[(1S)-1-[(5-chloro-2-methylpyridin-3-yl)amino]-2,2,2-trifluoroethyl]thiophen-2-yl}formamido)-3-cyclopentyl-N-cyclopropylpropanamide]
20 | 408 | CC(Nc1cc(Cl)cnc1C(C)(C)C#N)c1ccc(C(=O)N[C@@H](CC2CCCC2)C(=O)NC2CC2)s1 (stereo partly shown) [Compound 192]
21 | 4 | Cc1ncc(Cl)cc1N[C@@H](C)c1ccc(C(=O)NC(CC2CCCC2)C(=O)Nc2c[nH]nn2)s1 (stereo partly drawn) [Compound 134, 2-({5-[(1S)-1-[(5-chloro-2-methylpyridin-3-yl)amino]ethyl]thiophen-2-yl}formamido)-3-cyclopentyl-N-(1H-1,2,3-triazol-4-yl)propanamide]
22 | 13 | Cc1ncc(Cl)cc1NC(Cn1cccn1)c1ccc(C(=O)N[C@@H](CC2CCCC2)C(=O)NC2CC2)s1 (stereo partly drawn) [Compound 191, (2S)-2-[(5-{1-[(5-chloro-2-methylpyridin-3-yl)amino]-2-(1H-pyrazol-1-yl)ethyl}thiophen-2-yl)formamido]-3-cyclopentyl-N-cyclopropylpropanamide]
23 | 20 | Cc1ncc(Cl)cc1NC(C)(C)c1ccc(C(=O)N[C@@H](CC2CCCC2)C(=O)NC23CC(C#N)(C2)C3)s1 [Compound 266, (2S)-2-[(5-{2-[(5-chloro-2-methylpyridin-3-yl)amino]propan-2-yl}thiophen-2-yl)formamido]-N-{3-cyanobicyclo[1.1.1]pentan-1-yl}-3-cyclopentylpropanamide]
24 | 5 | Cc1ncc(Cl)cc1N[C@@H](C)c1ccc(C(=O)N[C@@H](CC2CCCC2)C(=O)Nc2ccc3ncc(F)cc3c2)s1 [Compound 178, (2S)-2-({5-[(1S)-1-[(5-chloro-2-methylpyridin-3-yl)amino]ethyl]thiophen-2-yl}formamido)-3-cyclopentyl-N-(3-fluoroquinolin-6-yl)propanamide]
25 | 101 | Cc1ncc(Cl)cc1N[C@H](Cc1ccccc1)c1ccc(C(=O)N[C@@H](CC2CCCC2)C(=O)NC23CC(C2)C3)s1 [Compound 215, (2S)-N-{bicyclo[1.1.1]pentan-1-yl}-2-({5-[(1R)-1-[(5-chloro-2-methylpyridin-3-yl)amino]-2-phenylethyl]thiophen-2-yl}formamido)-3-cyclopentylpropanamide]
26 | 16 | C[C@@H](c1ccc(C(=O)N[C@@H](CC2CCCC2)C(=O)NC2CC2)s1)N1CCCc2ccc(Cl)cc21 [Compound 248, (2S)-2-({5-[(1S)-1-(7-chloro-1,2,3,4-tetrahydroquinolin-1-yl)ethyl]thiophen-2-yl}formamido)-3-cyclopentyl-N-cyclopropylpropanamide]
27 | > 10000 | Cc1ncc(Cl)cc1N[C@@H](C)c1ccc(C(=O)N[C@@H](C(=O)NC2CC2)C(C)(C)C)s1 [Compound 234, (2R)-2-({5-[(1S)-1-[(5-chloro-2-methylpyridin-3-yl)amino]ethyl]thiophen-2-yl}formamido)-N-cyclopropyl-3,3-dimethylbutanamide]
28 | 54 | C[C@@H](Nc1cc(Cl)cnc1C(N)=O)c1ccc(C(=O)N[C@@H](CC2CCCC2)C(=O)Nc2cnn(C)c2)s1 [Compound 137, 5-chloro-3-{[(1R)-1-(5-{[(1S)-2-cyclopentyl-1-[(1-methyl-1H-pyrazol-4-yl)carbamoyl]ethyl]carbamoyl}thiophen-2-yl)ethyl]amino}pyridine-2-carboxamide]
